From PMC5761851, “Application of a phenotypic drug discovery strategy to identify biological and chemical starting points for inhibition of TSLP production in lung epithelial cells” (PLoS ONE, 2018)

How the values were obtained:
motilin = biological target: T1, motilin (Homo sapiens, UniProt O43193); experiment: BioPrint panel: motilin (h) (agonist); format: binding; details: 1 micromolar, read-out: percentage of inhibition of activity
T1 construct: purchased Eurofins Pharma Discovery Services (KinaseProfiler; Cerep BioPrint panel)
Description: (§1) Supplement pone.0189247.s004.xlsx, sheet "Bioprint Selectivity Panel" | column: %

H4 = biological target: T2, H4 (Homo sapiens, UniProt Q9H3N8); experiment: BioPrint panel: H4 (h) (agonist); format: binding; details: 1 micromolar, read-out: percentage of inhibition of activity
T2 construct: purchased Eurofins Pharma Discovery Services (KinaseProfiler; Cerep BioPrint panel)
Description: as §1

[1] = system: human primary cell culture and co-culture systems; experiment: BioMAP Diversity PLUS phenotypic profiling; format: cell-based
Description: The concept of the BioMAP® Diversity PLUS™ Platform™ (DiscoverX) has been previously described. The platform is comprised of 12 specific combinations of human primary cell culture and co-culture systems stimulated with a range of physiological and disease relevant stimuli (S2 Table). The resulting activities define a bioactivity fingerprint that was used to search for similar patterns of biological responses across the BioMAP® reference database of >3,000 compounds, biologics, approved drugs and experimental agents. Compound 4 was tested at 0.111 μM, 0.333 μM, 1 μM and 3 μM concentrations.

D1 = biological target: T3, D1 (Homo sapiens, UniProt P21728); experiment: BioPrint panel: D1 (h) (antagonist); format: binding; details: 1 micromolar, read-out: percentage of inhibition of activity
T3 construct: purchased Eurofins Pharma Discovery Services (KinaseProfiler; Cerep BioPrint panel)
Description: as §1

MMP-2 = biological target: T4, MMP-2 (Homo sapiens, UniProt P08253); experiment: BioPrint panel: MMP-2 (h); format: biochemical; details: 1 micromolar, read-out: percentage of inhibition of activity
T4 construct: purchased Eurofins Pharma Discovery Services (KinaseProfiler; Cerep BioPrint panel)
Description: as §1

AMPA = experiment: BioPrint panel: AMPA (agonist); format: binding; details: 1 micromolar
Description: as §1

N neuronal a4 b2 = biological target: T5, N neuronal a4 b2 (Homo sapiens, UniProt P17787+P43681); experiment: BioPrint panel: N neuronal a4 b2 (h) (agonist); format: binding; details: 1 micromolar, read-out: percentage of inhibition of activity
T5 construct: purchased Eurofins Pharma Discovery Services (KinaseProfiler; Cerep BioPrint panel)
Description: as §1

GABA transporter = experiment: BioPrint panel: GABA transporter (antagonist); format: binding; details: 1 micromolar
Description: as §1

COX1 = biological target: T6, COX1 (Homo sapiens, UniProt P23219); experiment: BioPrint panel: COX1 (h); format: biochemical; details: 1 micromolar, read-out: percentage of inhibition of activity
T6 construct: purchased Eurofins Pharma Discovery Services (KinaseProfiler; Cerep BioPrint panel)
T6 sequence (P23219 24-599): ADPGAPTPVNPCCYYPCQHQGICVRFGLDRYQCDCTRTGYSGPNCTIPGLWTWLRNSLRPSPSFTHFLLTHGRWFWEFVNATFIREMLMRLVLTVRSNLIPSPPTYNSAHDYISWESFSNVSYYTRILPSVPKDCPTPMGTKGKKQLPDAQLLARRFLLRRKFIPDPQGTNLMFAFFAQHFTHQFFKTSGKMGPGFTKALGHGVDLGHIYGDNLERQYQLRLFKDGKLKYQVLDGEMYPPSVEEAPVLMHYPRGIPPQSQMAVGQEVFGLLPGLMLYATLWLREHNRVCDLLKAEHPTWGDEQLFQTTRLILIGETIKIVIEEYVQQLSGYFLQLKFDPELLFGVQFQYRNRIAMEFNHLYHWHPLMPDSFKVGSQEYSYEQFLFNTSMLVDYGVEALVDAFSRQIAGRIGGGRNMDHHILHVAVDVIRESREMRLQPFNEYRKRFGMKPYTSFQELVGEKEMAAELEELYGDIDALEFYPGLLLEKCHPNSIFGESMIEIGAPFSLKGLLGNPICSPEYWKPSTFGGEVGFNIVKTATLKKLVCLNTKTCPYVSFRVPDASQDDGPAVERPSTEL
Description: as §1

sst1 = biological target: T7, sst1 (Homo sapiens, UniProt P30872); experiment: BioPrint panel: sst1 (h) (agonist); format: binding; details: 1 micromolar, read-out: percentage of inhibition of activity
T7 construct: purchased Eurofins Pharma Discovery Services (KinaseProfiler; Cerep BioPrint panel)
Description: as §1

ATPase (Na+/K+) = experiment: BioPrint panel: ATPase (Na+/K+); format: biochemical; details: 1 micromolar
Description: as §1

COX2 = biological target: T8, COX2 (Homo sapiens, UniProt P35354); experiment: BioPrint panel: COX2 (h); format: biochemical; details: 1 micromolar, read-out: percentage of inhibition of activity
T8 construct: purchased Eurofins Pharma Discovery Services (KinaseProfiler; Cerep BioPrint panel)
Description: as §1

dopamine transporter = biological target: T9, dopamine transporter (Homo sapiens, UniProt Q01959); experiment: BioPrint panel: dopamine transporter (h) (antagonist); format: binding; details: 1 micromolar, read-out: percentage of inhibition of activity
T9 construct: purchased Eurofins Pharma Discovery Services (KinaseProfiler; Cerep BioPrint panel)
T9 sequence (Q01959 whole entry): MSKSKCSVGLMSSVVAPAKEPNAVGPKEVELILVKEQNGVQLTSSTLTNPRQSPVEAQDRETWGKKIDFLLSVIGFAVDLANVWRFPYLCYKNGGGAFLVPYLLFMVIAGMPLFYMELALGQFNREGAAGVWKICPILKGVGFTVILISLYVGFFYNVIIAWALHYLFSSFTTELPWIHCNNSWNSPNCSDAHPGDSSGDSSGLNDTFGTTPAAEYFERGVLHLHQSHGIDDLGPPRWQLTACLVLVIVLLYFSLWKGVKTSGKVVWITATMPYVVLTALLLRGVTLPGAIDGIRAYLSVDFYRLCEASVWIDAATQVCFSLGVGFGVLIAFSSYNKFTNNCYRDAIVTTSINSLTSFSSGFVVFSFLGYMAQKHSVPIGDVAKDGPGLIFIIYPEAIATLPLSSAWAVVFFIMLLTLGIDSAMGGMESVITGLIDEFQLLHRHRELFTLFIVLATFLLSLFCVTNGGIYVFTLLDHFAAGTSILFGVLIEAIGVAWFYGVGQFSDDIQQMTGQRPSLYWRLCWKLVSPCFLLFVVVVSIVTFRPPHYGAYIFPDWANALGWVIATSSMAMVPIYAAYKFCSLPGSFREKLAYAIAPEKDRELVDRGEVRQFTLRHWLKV
Description: as §1

[2] = biological target: T10, choline transporter (CHT1) (Homo sapiens, UniProt Q9GZV3); experiment: BioPrint panel: choline transporter (CHT1) (h) (antagonist); format: binding; details: 1 micromolar, read-out: percentage of inhibition of activity
T10 construct: purchased Eurofins Pharma Discovery Services (KinaseProfiler; Cerep BioPrint panel)
Description: as §1

NOP (ORL1) = biological target: T11, NOP (ORL1) (Homo sapiens, UniProt P41146); experiment: BioPrint panel: NOP (ORL1) (h) (agonist); format: binding; details: 1 micromolar, read-out: percentage of inhibition of activity
T11 construct: purchased Eurofins Pharma Discovery Services (KinaseProfiler; Cerep BioPrint panel)
T11 sequence (P41146 whole entry): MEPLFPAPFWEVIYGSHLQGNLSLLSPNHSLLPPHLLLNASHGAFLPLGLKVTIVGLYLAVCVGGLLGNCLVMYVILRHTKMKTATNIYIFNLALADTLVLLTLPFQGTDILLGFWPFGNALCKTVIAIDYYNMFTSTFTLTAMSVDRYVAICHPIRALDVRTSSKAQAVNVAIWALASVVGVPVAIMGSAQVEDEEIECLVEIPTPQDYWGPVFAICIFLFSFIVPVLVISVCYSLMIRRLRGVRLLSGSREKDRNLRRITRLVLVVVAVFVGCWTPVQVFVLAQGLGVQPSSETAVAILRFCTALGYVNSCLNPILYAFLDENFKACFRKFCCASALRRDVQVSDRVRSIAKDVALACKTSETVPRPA
Description: as §1

ETA = biological target: T12, ETA (Homo sapiens, UniProt P25101); experiment: BioPrint panel: ETA (h) (agonist); format: binding; details: 1 micromolar, read-out: percentage of inhibition of activity
T12 construct: purchased Eurofins Pharma Discovery Services (KinaseProfiler; Cerep BioPrint panel)
Description: as §1

CDK2 (cycA) = biological target: T13, CDK2 (cycA) (Homo sapiens, UniProt P24941); experiment: BioPrint panel: CDK2 (h) (cycA); format: biochemical; details: 1 micromolar, read-out: percentage of inhibition of activity
T13 construct: purchased Eurofins Pharma Discovery Services (KinaseProfiler; Cerep BioPrint panel)
Description: as §1

[3] = biological target: T14, norepinephrine transporter (Homo sapiens, UniProt P23975); experiment: BioPrint panel: norepinephrine transporter (h) (antagonist); format: binding; details: 1 micromolar, read-out: percentage of inhibition of activity
T14 construct: purchased Eurofins Pharma Discovery Services (KinaseProfiler; Cerep BioPrint panel)
Description: as §1

M1 = biological target: T15, M1 (Homo sapiens, UniProt P11229); experiment: BioPrint panel: M1 (h) (antagonist); format: binding; details: 1 micromolar, read-out: percentage of inhibition of activity
T15 construct: purchased Eurofins Pharma Discovery Services (KinaseProfiler; Cerep BioPrint panel)
T15 sequence (P11229 whole entry): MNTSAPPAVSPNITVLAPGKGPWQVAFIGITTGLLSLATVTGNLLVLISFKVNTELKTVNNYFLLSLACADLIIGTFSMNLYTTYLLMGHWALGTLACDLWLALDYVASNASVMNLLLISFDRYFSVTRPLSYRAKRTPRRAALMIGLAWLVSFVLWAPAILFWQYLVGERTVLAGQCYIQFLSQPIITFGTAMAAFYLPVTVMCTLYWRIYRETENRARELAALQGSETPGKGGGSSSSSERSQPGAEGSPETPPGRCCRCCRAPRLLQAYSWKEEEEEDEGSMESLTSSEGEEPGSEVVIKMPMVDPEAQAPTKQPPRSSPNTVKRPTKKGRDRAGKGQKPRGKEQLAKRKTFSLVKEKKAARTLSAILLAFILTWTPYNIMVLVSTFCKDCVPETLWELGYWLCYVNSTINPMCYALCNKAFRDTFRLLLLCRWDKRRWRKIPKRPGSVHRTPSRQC
Description: as §1

P-gp = biological target: T16, P-gp (Homo sapiens, UniProt P08183); experiment: BioPrint panel: P-gp (MDR1-MDCKII, calcein AM substrate); format: in vitro ADME; details: 10 micromolar
T16 construct: purchased Eurofins Pharma Discovery Services (KinaseProfiler; Cerep BioPrint panel)
Description: as §1

LXRbeta = biological target: T17, LXRbeta (Homo sapiens, UniProt P55055); experiment: BioPrint panel: LXRbeta (h) (agonist); format: binding; details: 1 micromolar, read-out: percentage of inhibition of activity
T17 construct: purchased Eurofins Pharma Discovery Services (KinaseProfiler; Cerep BioPrint panel)
Description: as §1

kappa (KOP) = biological target: T18, kappa (KOP) (Rattus norvegicus, UniProt P34975); experiment: BioPrint panel: kappa (KOP) (agonist); format: binding; details: 1 micromolar, read-out: percentage of inhibition of activity
T18 construct: purchased Eurofins Pharma Discovery Services (KinaseProfiler; Cerep BioPrint panel)
Description: as §1

[4] = system: Ca2+ channel (L, dihydropyridine site); experiment: BioPrint panel: Ca2+ channel (L, dihydropyridine site) (antagonist); format: binding; details: 1 micromolar
Description: as §1

CCR2 = biological target: T19, CCR2 (Homo sapiens, UniProt P41597); experiment: BioPrint panel: CCR2 (h) (agonist); format: binding; details: 1 micromolar, read-out: percentage of inhibition of activity
T19 construct: purchased Eurofins Pharma Discovery Services (KinaseProfiler; Cerep BioPrint panel)
T19 sequence (P41597 whole entry): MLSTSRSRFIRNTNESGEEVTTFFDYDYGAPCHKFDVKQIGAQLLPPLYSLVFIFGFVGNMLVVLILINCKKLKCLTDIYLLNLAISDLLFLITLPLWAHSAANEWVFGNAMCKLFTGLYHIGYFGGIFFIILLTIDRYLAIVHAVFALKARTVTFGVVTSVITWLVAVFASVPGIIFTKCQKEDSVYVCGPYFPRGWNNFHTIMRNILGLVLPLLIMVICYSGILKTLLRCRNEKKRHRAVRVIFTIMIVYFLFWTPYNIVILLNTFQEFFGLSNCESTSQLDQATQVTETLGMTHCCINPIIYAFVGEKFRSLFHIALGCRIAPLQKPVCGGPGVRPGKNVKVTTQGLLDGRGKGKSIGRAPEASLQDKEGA
Description: as §1

MMP-1 = biological target: T20, MMP-1 (Homo sapiens, UniProt P03956); experiment: BioPrint panel: MMP-1 (h); format: biochemical; details: 1 micromolar
T20 construct: purchased Eurofins Pharma Discovery Services (KinaseProfiler; Cerep BioPrint panel)
Description: as §1

GR = biological target: T21, GR (Homo sapiens, UniProt P04150); experiment: BioPrint panel: GR (h) (agonist); format: binding; details: 1 micromolar, read-out: percentage of inhibition of activity
T21 construct: purchased Eurofins Pharma Discovery Services (KinaseProfiler; Cerep BioPrint panel)
Description: as §1

alpha 1A = biological target: T22, alpha 1A (Homo sapiens, UniProt P35348); experiment: BioPrint panel: alpha 1A (h) (antagonist); format: binding; details: 1 micromolar, read-out: percentage of inhibition of activity
T22 construct: purchased Eurofins Pharma Discovery Services (KinaseProfiler; Cerep BioPrint panel)
Description: as §1

PAF = biological target: T23, PAF (Homo sapiens, UniProt P25105); experiment: BioPrint panel: PAF (h) (agonist); format: binding; details: 1 micromolar, read-out: percentage of inhibition of activity
T23 construct: purchased Eurofins Pharma Discovery Services (KinaseProfiler; Cerep BioPrint panel)
Description: as §1

sst4 = biological target: T24, sst4 (Homo sapiens, UniProt P31391); experiment: BioPrint panel: sst4 (h) (agonist); format: binding; details: 1 micromolar, read-out: percentage of inhibition of activity
T24 construct: purchased Eurofins Pharma Discovery Services (KinaseProfiler; Cerep BioPrint panel)
T24 sequence (P31391 whole entry): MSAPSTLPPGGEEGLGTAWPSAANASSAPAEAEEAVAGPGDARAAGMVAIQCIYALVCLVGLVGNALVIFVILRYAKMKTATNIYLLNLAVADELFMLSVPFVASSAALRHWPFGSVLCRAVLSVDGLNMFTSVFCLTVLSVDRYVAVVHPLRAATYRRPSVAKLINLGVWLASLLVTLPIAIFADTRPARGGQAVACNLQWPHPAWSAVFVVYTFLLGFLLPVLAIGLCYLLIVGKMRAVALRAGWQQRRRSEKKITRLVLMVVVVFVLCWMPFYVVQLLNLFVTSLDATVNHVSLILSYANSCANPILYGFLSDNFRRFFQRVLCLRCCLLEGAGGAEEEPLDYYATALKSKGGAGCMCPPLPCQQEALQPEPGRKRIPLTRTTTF
Description: as §1

PCP = experiment: BioPrint panel: PCP (antagonist); format: binding; details: 1 micromolar
Description: as §1

V2 = biological target: T25, V2 (Homo sapiens, UniProt P30518); experiment: BioPrint panel: V2 (h) (agonist); format: binding; details: 1 micromolar, read-out: percentage of inhibition of activity
T25 construct: purchased Eurofins Pharma Discovery Services (KinaseProfiler; Cerep BioPrint panel)
T25 sequence (P30518 whole entry): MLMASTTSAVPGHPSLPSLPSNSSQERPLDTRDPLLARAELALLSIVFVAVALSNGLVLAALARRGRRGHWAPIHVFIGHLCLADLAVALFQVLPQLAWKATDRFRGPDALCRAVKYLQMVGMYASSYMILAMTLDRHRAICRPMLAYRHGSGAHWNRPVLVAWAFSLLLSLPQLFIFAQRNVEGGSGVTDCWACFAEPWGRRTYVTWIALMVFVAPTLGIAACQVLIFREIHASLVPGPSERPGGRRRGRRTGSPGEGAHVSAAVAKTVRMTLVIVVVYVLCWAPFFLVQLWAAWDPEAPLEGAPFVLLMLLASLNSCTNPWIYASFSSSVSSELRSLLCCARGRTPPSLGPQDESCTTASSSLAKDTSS
Description: as §1

inducible NOS = biological target: T26, inducible NOS (Mus musculus, UniProt P29477); experiment: BioPrint panel: inducible NOS; format: biochemical; details: 1 micromolar, read-out: percentage of inhibition of activity
T26 construct: purchased Eurofins Pharma Discovery Services (KinaseProfiler; Cerep BioPrint panel)
Description: as §1

caspase-3 = biological target: T27, caspase-3 (Homo sapiens, UniProt P42574); experiment: BioPrint panel: caspase-3 (h); format: biochemical; details: 1 micromolar, read-out: percentage of inhibition of activity
T27 construct: purchased Eurofins Pharma Discovery Services (KinaseProfiler; Cerep BioPrint panel)
T27 sequence (P42574 29-175 limits assumed): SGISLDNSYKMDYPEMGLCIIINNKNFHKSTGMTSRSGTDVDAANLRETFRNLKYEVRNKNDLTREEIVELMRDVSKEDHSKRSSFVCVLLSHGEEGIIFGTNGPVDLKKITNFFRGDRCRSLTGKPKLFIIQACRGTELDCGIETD
T27 sequence (P42574 176-277 limits assumed): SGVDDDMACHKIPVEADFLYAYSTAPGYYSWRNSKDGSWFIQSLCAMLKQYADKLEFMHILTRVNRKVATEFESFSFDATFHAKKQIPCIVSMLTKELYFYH
Description: as §1

Y1 = biological target: T28, Y1 (Homo sapiens, UniProt P25929); experiment: BioPrint panel: Y1 (h) (agonist); format: binding; details: 1 micromolar, read-out: percentage of inhibition of activity
T28 construct: purchased Eurofins Pharma Discovery Services (KinaseProfiler; Cerep BioPrint panel)
Description: as §1

B2 = biological target: T29, B2 (Homo sapiens, UniProt P30411); experiment: BioPrint panel: B2 (h) (agonist); format: binding; details: 1 micromolar, read-out: percentage of inhibition of activity
T29 construct: purchased Eurofins Pharma Discovery Services (KinaseProfiler; Cerep BioPrint panel)
Description: as §1

5-HT1D = biological target: T30, 5-HT1D (Rattus norvegicus, UniProt P28565); experiment: BioPrint panel: 5-HT1D (agonist); format: binding; details: 1 micromolar, read-out: percentage of inhibition of activity
T30 construct: purchased Eurofins Pharma Discovery Services (KinaseProfiler; Cerep BioPrint panel)
T30 sequence (P28565 whole entry): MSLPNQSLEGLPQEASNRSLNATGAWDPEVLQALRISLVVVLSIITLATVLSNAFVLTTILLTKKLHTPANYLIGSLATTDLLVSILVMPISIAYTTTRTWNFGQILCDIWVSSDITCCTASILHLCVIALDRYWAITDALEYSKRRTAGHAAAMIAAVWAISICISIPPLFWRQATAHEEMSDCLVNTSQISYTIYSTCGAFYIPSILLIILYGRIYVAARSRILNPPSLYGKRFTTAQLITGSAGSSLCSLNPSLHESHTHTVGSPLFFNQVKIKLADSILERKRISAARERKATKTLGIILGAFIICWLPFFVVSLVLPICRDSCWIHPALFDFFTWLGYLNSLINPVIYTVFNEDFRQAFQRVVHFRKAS
Description: as §1

FP = biological target: T31, FP (Homo sapiens, UniProt P43088); experiment: BioPrint panel: FP (h) (agonist); format: binding; details: 1 micromolar, read-out: percentage of inhibition of activity
T31 construct: purchased Eurofins Pharma Discovery Services (KinaseProfiler; Cerep BioPrint panel)
Description: as §1

BLT1 (LTB4) = biological target: T32, BLT1 (LTB4) (Homo sapiens, UniProt Q15722); experiment: BioPrint panel: BLT1 (LTB4) (h) (agonist); format: binding; details: 1 micromolar, read-out: percentage of inhibition of activity
T32 construct: purchased Eurofins Pharma Discovery Services (KinaseProfiler; Cerep BioPrint panel)
T32 sequence (Q15722 whole entry): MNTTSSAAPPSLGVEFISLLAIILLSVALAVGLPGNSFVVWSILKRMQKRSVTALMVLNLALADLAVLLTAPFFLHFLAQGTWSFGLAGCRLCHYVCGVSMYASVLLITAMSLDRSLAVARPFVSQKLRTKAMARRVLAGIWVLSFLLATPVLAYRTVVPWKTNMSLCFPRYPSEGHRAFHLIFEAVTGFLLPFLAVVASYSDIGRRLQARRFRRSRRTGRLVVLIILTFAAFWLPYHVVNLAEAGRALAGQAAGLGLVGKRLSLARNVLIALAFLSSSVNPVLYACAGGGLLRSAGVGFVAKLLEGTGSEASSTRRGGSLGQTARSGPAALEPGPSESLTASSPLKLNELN
Description: as §1

M3 = biological target: T33, M3 (Homo sapiens, UniProt P20309); experiment: BioPrint panel: M3 (h) (antagonist); format: binding; details: 1 micromolar, read-out: percentage of inhibition of activity
T33 construct: purchased Eurofins Pharma Discovery Services (KinaseProfiler; Cerep BioPrint panel)
T33 sequence (P20309 whole entry): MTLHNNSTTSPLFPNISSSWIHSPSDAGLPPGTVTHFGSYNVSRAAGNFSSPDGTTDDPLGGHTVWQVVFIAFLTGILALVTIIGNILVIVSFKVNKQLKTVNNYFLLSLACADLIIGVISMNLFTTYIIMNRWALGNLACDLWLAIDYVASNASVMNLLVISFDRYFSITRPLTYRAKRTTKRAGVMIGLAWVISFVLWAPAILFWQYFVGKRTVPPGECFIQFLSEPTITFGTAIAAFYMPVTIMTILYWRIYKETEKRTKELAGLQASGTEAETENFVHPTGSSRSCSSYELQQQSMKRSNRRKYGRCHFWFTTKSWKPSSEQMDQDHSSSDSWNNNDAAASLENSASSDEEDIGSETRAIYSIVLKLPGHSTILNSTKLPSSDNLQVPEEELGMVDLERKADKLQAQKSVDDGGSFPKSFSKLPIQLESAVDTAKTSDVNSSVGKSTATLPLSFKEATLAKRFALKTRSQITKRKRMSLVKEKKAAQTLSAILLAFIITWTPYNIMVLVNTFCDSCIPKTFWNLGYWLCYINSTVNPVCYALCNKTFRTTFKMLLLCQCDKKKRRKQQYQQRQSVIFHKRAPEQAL
Description: as §1

Cn1cc(-c2cccc(-c3nc(C(=O)NC4C5CC6CC4CC(O)(C6)C5)c(N)nc3N)c2)cn1 (stereo not shown) [compound 4]
inhibition at 1 µM (motilin): -4.9%
inhibition at 1 µM (H4): -1.7%
cytotoxicity in the 3C system ([1]; 1 μM, 3C (HuVEC)): cytotoxicity
cytotoxicity in BioMAP activated cellular systems ([1]; 3 μM): cytotoxic to B cells, fibroblasts and particularly endothelial cells
IL-8 levels in lung fibroblasts (MyoF) ([1]; 0.111 and 0.333 μM): increased
VCAM-1 expression in endothelial cells (3C) ([1]; 0.111 and 0.333 μM): reduced
anti-proliferative activity in BioMAP systems ([1]; 0.111 and 0.333 μM): anti-proliferative to endothelial cells, T and B cells, smooth muscle cells and fibroblasts
sIL10 levels in the endothelial cell / macrophage system (/Mphg) ([1]; 0.111 and 0.333 μM): decreased
sIL17A, sIL17F and sIL6 levels in the B / PMBC cell system (BT) ([1]; 0.111 and 0.333 μM): decreased
endpoints inhibited out of 32 measured in the NHBE (BE3C) and NHBE / fibroblasts (B4FT) systems ([1]; 0.111–0.333 μM, tPA and Eotaxin 3): 2
inhibition at 1 µM (D1): 2.3%
inhibition at 1 µM (MMP-2): 13.6%
percentage of inhibition of activity (AMPA): 3.7%
inhibition at 1 µM (N neuronal a4 b2): -13.9%
percentage of inhibition of activity (GABA transporter): 1.1%
inhibition at 1 µM (COX1): -4.3%
inhibition at 1 µM (sst1): 1.2%
percentage of inhibition of activity (ATPase (Na+/K+)): 0%
inhibition at 1 µM (COX2): -12.1%
inhibition at 1 µM (dopamine transporter): 7.5%
inhibition at 1 µM [2]: 3%
inhibition at 1 µM (NOP (ORL1)): 12.3%
inhibition at 1 µM (ETA): -12.5%
inhibition at 1 µM (CDK2 (cycA)): -7.9%
inhibition at 1 µM [3]: 26.7%
inhibition at 1 µM (M1): -16.7%
percentage of inhibition of activity (P-gp): 82.8%
inhibition at 1 µM (LXRbeta): 4.1%
inhibition at 1 µM (kappa (KOP)): 11.8%
percentage of inhibition of activity [4]: -3.5%
inhibition at 1 µM (CCR2): 2.6%
percentage of inhibition of activity (MMP-1): INTER
inhibition at 1 µM (GR): 0.9%
inhibition at 1 µM (alpha 1A): 2.8%
inhibition at 1 µM (PAF): -2.1%
inhibition at 1 µM (sst4): -11.8%
percentage of inhibition of activity (PCP): -2.1%
inhibition at 1 µM (V2): 0%
inhibition at 1 µM (inducible NOS): -8.8%
inhibition at 1 µM (caspase-3): 3.9%
inhibition at 1 µM (Y1): -9.2%
inhibition at 1 µM (B2): -1%
inhibition at 1 µM (5-HT1D): -8.1%
inhibition at 1 µM (FP): 4.8%
inhibition at 1 µM (BLT1 (LTB4)): 14.2%
inhibition at 1 µM (M3): -0.3%
